Earlier results in patent US11389549B2, “Diagnosis-treatment integrated nano-probe for 19F-MR/fluorescence multi-mode molecular imaging and drug-loading and preparation method and application of nano-probe” (Harbin Medical University, priority 2019, dated 2022).

C=CC(=O)Nc1cc(Nc2nccc(-c3cn(C)c4ccccc34)n2)c(OC)cc1N(C)CCN(C)C [AZD9291]
solubility in organic solvents (DMSO and other organic solvents): soluble to Dimethyl Sulfoxide (DMSO) and other organic solvents merely
solubility in water (water): insoluble to water
